Data as given in patent publication US20230151017A1, “THERAPEUTIC AGENTS TARGETING GPR35” (PROMETHEUS BIOSCIENCES, INC., priority 2020, published 2023).

Target: T1, Human GPR35 (Homo sapiens, UniProt Q9HC97)
T1 construct: Tango receptor fusion (protease cleavage site + Gal4-VP16 transcription factor); host or cells: Jump-In Tango U2OS cells
Test: Beta-Arrestin Assay
Type: cell-based
Conditions: Human GPR35 expressing JumpIn 294S Tango U2OS cells; compounds overnight; LiveBLAzer-FRET B/G (CCF4-AM) readout
Procedure: Human GPR35 expressing JumpIn (Thermo Fisher) 294S Tango U2OS cells were plated in 384-well format in clear bottom plates at a cell density of 10,000 cells/well and allowed to adhere for 5 hours. Cells were then treated with serially diluted test compounds overnight. The next day, LiveBLAzer-FRET B/G (CCF4-AM) detection reagents were added, and cells were allowed to incubate for 4 hours in the dark at room temp before reading plates on a BioTek Cytation 5 plate reader. To determine EC50 values, data were fit to a four-parameter dose-response curves.

T1 sequence (Q9HC97 whole entry, the tested form may be a part): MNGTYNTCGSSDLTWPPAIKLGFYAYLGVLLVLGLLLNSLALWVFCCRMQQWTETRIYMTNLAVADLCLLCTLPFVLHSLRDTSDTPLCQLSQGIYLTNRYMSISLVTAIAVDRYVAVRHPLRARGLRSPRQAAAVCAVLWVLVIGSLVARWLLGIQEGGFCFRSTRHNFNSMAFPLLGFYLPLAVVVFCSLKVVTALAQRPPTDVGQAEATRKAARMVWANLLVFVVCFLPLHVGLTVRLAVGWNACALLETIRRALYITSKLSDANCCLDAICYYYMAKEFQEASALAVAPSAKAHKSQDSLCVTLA

Structure (SMILES)	EC50 [nM]
CCOc1cc(-c2cccc(CCO)c2)ccc1-c1nc2[nH]nnc2c(=O)[nH]1 [Compound 103, 5-(3-Ethoxy-3′-(2-hydroxyethyl)-[1,1′-biphenyl]-4-yl)-3,6-dihydro-7H-[1,2,3]triazolo[4,5-d]pyrimidin-7-one]	1000 to 10000
CCOc1cc(-c2cccc(S(N)(=O)=O)c2)ccc1-c1nc2[nH]nnc2c(=O)[nH]1 [Compound 106, 3′-Ethoxy-4′-(7-oxo-6,7-dihydro-3H-[1,2,3]triazolo[4,5-d]pyrimidin-5-yl)-[1,1′-biphenyl]-3-sulfonamide]	1000 to 10000
CCOc1cc(-c2ccc(S(N)(=O)=O)cc2)ccc1-c1nc2[nH]nnc2c(=O)[nH]1 [Compound 107, 3′-Ethoxy-4′-(7-oxo-6,7-dihydro-3H-[1,2,3]triazolo[4,5-d]pyrimidin-5-yl)-[1,1′-biphenyl]-4-sulfonamide]	1000 to 10000
CCOc1cc(-c2ccc(O)cc2O)ccc1-c1nc2[nH]nnc2c(=O)[nH]1 [Compound 110, 5-(3-Ethoxy-2′,4′-dihydroxy-[1,1′-biphenyl]-4-yl)-3,6-dihydro-7H-[1,2,3]triazolo[4,5-d]pyrimidin-7-one]	1000 to 10000
CCOc1cc(-c2cc(CCC(=O)O)cc(OCCN)c2)ccc1-c1nc2[nH]nnc2c(=O)[nH]1 [Compound 115, 3-(5-(2-aminoethoxy)-3′-ethoxy-4′-(7-oxo-6,7-dihydro-3H-[1,2,3]triazolo[4,5-d]pyrimidin-5-yl)-[1,1′-biphenyl]-3-yl)propanoic acid]	1000 to 10000
CCOc1cc(-c2ccc(OCCN)c(CCC(=O)O)c2)ccc1-c1nc2[nH]nnc2c(=O)[nH]1 [Compound 116, 3-(4-(2-Aminoethoxy)-3′-ethoxy-4′-(7-oxo-6,7-dihydro-3H-[1,2,3]triazolo[4,5-d]pyrimidin-5-yl)-[1,1′-biphenyl]-3-yl)propanoic acid]	≤ 1000
CCOc1cc(-c2cccc(CCC(=O)NO)c2)ccc1-c1nc2[nH]nnc2c(=O)[nH]1 [Compound 117, 3-(3′-Ethoxy-4′-(7-oxo-6,7-dihydro-3H-[1,2,3]triazolo[4,5-d]pyrimidin-5-yl)-[1,1′-biphenyl]-3-yl)-N-hydroxypropanamide]	1000 to 10000
CCOc1cc(-c2cccc(CCC(=O)NOC)c2)ccc1-c1nc2[nH]nnc2c(=O)[nH]1 [Compound 118, 3-(3′-Ethoxy-4′-(7-oxo-6,7-dihydro-3H-[1,2,3]triazolo[4,5-d]pyrimidin-5-yl)-[1,1′-biphenyl]-3-yl)-N-methoxypropanamide]	1000 to 10000
CCOc1cc(-c2cccc(CCC(N)=O)c2)ccc1-c1nc2[nH]nnc2c(=O)[nH]1 [Compound 119, 3-(3′-Ethoxy-4′-(7-oxo-6,7-dihydro-3H-[1,2,3]triazolo[4,5-d]pyrimidin-5-yl)-[1,1′-biphenyl]-3-yl)propanamide]	1000 to 10000
CCOc1cc(-c2cccc(/C=C3\SC(=O)NC3=O)c2)ccc1-c1nc2[nH]nnc2c(=O)[nH]1 [Compound 120, (Z)-5-((3′-Ethoxy-4′-(7-oxo-6,7-dihydro-3H-[1,2,3]triazolo[4,5-d]pyrimidin-5-yl)-[1,1′-biphenyl]-3-yl)methylene)thiazolidine-2,4-dione]	≤ 1000
CCOc1cc(-c2cccc(CC3SC(=O)NC3=O)c2)ccc1-c1nc2[nH]nnc2c(=O)[nH]1 (stereo not shown) [Compound 121, 5-((3′-Ethoxy-4′-(7-oxo-6,7-dihydro-3H-[1,2,3]triazolo[4,5-d]pyrimidin-5-yl)-[1,1′-biphenyl]-3-yl)methyl)thiazolidine-2,4-dione]	≤ 1000
CCOc1cc(-c2cccc(CCc3noc(=O)[nH]3)c2)ccc1-c1nc2[nH]nnc2c(=O)[nH]1 [Compound 122, 3-(2-(3′-Ethoxy-4′-(7-oxo-6,7-dihydro-3H-[1,2,3]triazolo[4,5-d]pyrimidin-5-yl)-[1,1′-biphenyl]-3-yl)ethyl)-1,2,4-oxadiazol-5(4H)-one]	≤ 1000
CCOc1cc(-c2cccc(CCC(=O)NS(=O)(=O)N(C)C)c2)ccc1-c1nc2[nH]nnc2c(=O)[nH]1 [Compound 123, N—(N,N-Dimethylsulfamoyl)-3-(3′-ethoxy-4′-(7-oxo-6,7-dihydro-3H-[1,2,3]triazolo[4,5-d]pyrimidin-5-yl)-[1,1′-biphenyl]-3-yl)propanamide]	≤ 1000
CCOc1cc(-c2cccc(CCc3nnn[nH]3)c2)ccc1-c1nc2[nH]nnc2c(=O)[nH]1 [Compound 124, 5-(3′-(2-(1H-Tetrazol-5-yl)ethyl)-3-ethoxy-[1,1′-biphenyl]-4-yl)-3,6-dihydro-7H-[1,2,3]triazolo[4,5-d]pyrimidin-7-one]	≤ 1000
CCOc1cc(-c2cccc(CC3OC(=O)NC3=O)c2)ccc1-c1nc2[nH]nnc2c(=O)[nH]1 (stereo not shown) [Compound 125, 5-((3′-Ethoxy-4′-(7-oxo-6,7-dihydro-3H-[1,2,3]triazolo[4,5-d]pyrimidin-5-yl)-[1,1′-biphenyl]-3-yl)methyl)oxazolidine-2,4-dione]	≤ 1000
CCOc1cc(-c2cccc(Cc3c(C)[nH]oc3=O)c2)ccc1-c1nc2[nH]nnc2c(=O)[nH]1 [Compound 126, 4-((3′-Ethoxy-4′-(7-oxo-6,7-dihydro-3H-[1,2,3]triazolo[4,5-d]pyrimidin-5-yl)-[1,1′-biphenyl]-3-yl)methyl)-3-methylisoxazol-5(2H)-one]	≤ 1000
CCOc1cc(-c2cccc(C(O)(O)C(F)(F)F)c2)ccc1-c1nc2[nH]nnc2c(=O)[nH]1 [Compound 127, 5-(3-Ethoxy-3′-(2,2,2-trifluoro-1,1-dihydroxyethyl)-[1,1′-biphenyl]-4-yl)-3,6-dihydro-7H-[1,2,3]triazolo[4,5-d]pyrimidin-7-one]	≤ 1000
CCOc1cc(-c2ccc(C(O)(O)C(F)(F)F)cc2)ccc1-c1nc2[nH]nnc2c(=O)[nH]1 [Compound 128, 5-(3-Ethoxy-4′-(2,2,2-trifluoro-1,1-dihydroxyethyl)-[1,1′-biphenyl]-4-yl)-3,6-dihydro-7H-[1,2,3]triazolo[4,5-d]pyrimidin-7-one]	≤ 1000

Results, then the compound that gave them:

EC50 [nM]	Structure (SMILES)
≤ 1000	CCOc1cc(-c2ccc(C(N)=O)cc2)ccc1-c1nc2[nH]nnc2c(=O)[nH]1 [Compound 101, 3′-Ethoxy-4′-(7-oxo-6,7-dihydro-3H-[1,2,3]triazolo[4,5-d]pyrimidin-5-yl)-[1,1′-biphenyl]-4-carboxamide]
≤ 1000	CCOc1cc(-c2cccc(CCCO)c2)ccc1-c1nc2[nH]nnc2c(=O)[nH]1 [Compound 102, 5-(3-Ethoxy-3′-(3-hydroxypropyl)-[1,1′-biphenyl]-4-yl)-3,6-dihydro-7H-[1,2,3]triazolo[4,5-d]pyrimidin-7-one]
≤ 1000	CCOc1cc(-c2cccc(CO)c2)ccc1-c1nc2[nH]nnc2c(=O)[nH]1 [Compound 104, 5-(3-Ethoxy-3′-(hydroxymethyl)-[1,1′-biphenyl]-4-yl)-3,6-dihydro-7H-[1,2,3]triazolo[4,5-d]pyrimidin-7-one]
≤ 1000	CCOc1cc(-c2ccc(CO)cc2)ccc1-c1nc2[nH]nnc2c(=O)[nH]1 [Compound 105, 5-(3-Ethoxy-4′-(hydroxymethyl)-[1,1′-biphenyl]-4-yl)-3,6-dihydro-7H-[1,2,3]triazolo[4,5-d]pyrimidin-7-one]
≤ 1000	CCOc1cc(-c2ccc(O)c(O)c2)ccc1-c1nc2[nH]nnc2c(=O)[nH]1 [Compound 108, 5-(3-Ethoxy-3′,4′-dihydroxy-[1,1′-biphenyl]-4-yl)-3,6-dihydro-7H-[1,2,3]triazolo[4,5-d]pyrimidin-7-one]
≤ 1000	CCOc1cc(-c2cc(O)ccc2O)ccc1-c1nc2[nH]nnc2c(=O)[nH]1 [Compound 109, 5-(3-Ethoxy-2′,5′-dihydroxy-[1,1′-biphenyl]-4-yl)-3,6-dihydro-7H-[1,2,3]triazolo[4,5-d]pyrimidin-7-one]
≤ 1000	CCOc1cc(-c2cc(O)cc(O)c2)ccc1-c1nc2[nH]nnc2c(=O)[nH]1 [Compound 111, 5-(3-Ethoxy-3′,5′-dihydroxy-[1,1′-biphenyl]-4-yl)-3,6-dihydro-7H-[1,2,3]triazolo[4,5-d]pyrimidin-7-one]
≤ 1000	CCOc1cc(-c2cc(O)cc(/C=C/C(=O)O)c2)ccc1-c1nc2[nH]nnc2c(=O)[nH]1 [Compound 112, (E)-3-(3′-ethoxy-5-hydroxy-4′-(7-oxo-6,7-dihydro-3H-[1,2,3]triazolo[4,5-d]pyrimidin-5-yl)-[1,1′-biphenyl]-3-yl)acrylic acid]
≤ 1000	CCOc1cc(-c2cc(O)cc(CCC(=O)O)c2)ccc1-c1nc2[nH]nnc2c(=O)[nH]1 [Compound 113, 3-(3′-Ethoxy-5-hydroxy-4′-(7-oxo-6,7-dihydro-3H-[1,2,3]triazolo[4,5-d]pyrimidin-5-yl)-[1,1′-biphenyl]-3-yl)propanoic acid]
≤ 1000	CCOc1cc(-c2cc(O)cc(CCC(N)=O)c2)ccc1-c1nc2[nH]nnc2c(=O)[nH]1 [Compound 114, 3-(3′-Ethoxy-5-hydroxy-4′-(7-oxo-6,7-dihydro-3H-[1,2,3]triazolo[4,5-d]pyrimidin-5-yl)-[1,1′-biphenyl]-3-yl)propanamide]
